These are literature values, as cited in patent US20250188545A1, “METHODS FOR PREDICTING RESPONSIVENESS OF LYMPHOMA TO DRUG AND METHODS FOR TREATING LYMPHOMA” (Celgene Corporation, priority 2022, published 2025).

For the data set, the system named is high-risk ABC DLBCL population. Conditions: PHOENIX (ibrutinib), ROBUST (lenalidomide).

As to `Nc1cccc2c1CN(C1CCC(=O)NC1=O)C2=O` (stereo not shown) [lenalidomide], the “activity combined with R-CHOP compared to R-CHOP alone” value is on record as “did not demonstrate greater activities”.
